Active and inactive are the calls of the source.
Columns and labels:
[1] = tested on: U-937; test: Inhibition of apoptosis in human U937 cells assessed as cell viability after 48 hrs by ATP based viability assay in presence of TNFalpha and CHX; type: functional
[2] = tested on: NIH3T3; test: Inhibition of apoptosis in mouse 3T3 cells assessed as cell viability after 24 hrs by ATP based viability assay in presence of TNFalpha and CHX; type: functional
[3] = Inhibition of death receptor signaling mediated necroptotic cell death in mouse 3T3 cells assessed as cell viability after 24 hrs by ATP based viability assay in presence of TNFalpha and zVAD-fmk; conditions: NIH3T3
[4] = Inhibition of death receptor signaling mediated necroptotic cell death in mouse L929 cells assessed as decreased levels of PE-conjugated autophagy marker LC3-II after 24 hrs by Western blot method in presence of TNFalpha; type: cell-based
[5] = Inhibition of death receptor signaling mediated necroptotic cell death in mouse 3T3 cells assessed as decreased levels of PE-conjugated autophagy marker LC3-II after 24 hrs by Western blot method in presence of TNFalpha and zVAD-fmk; type: cell-based; conditions: NIH3T3
[6] = Inhibition of death receptor signaling mediated necroptotic cell death in human Jurkat cells deficient in FADD and expressing FKBP12-based dimerization domain assessed as cell viability after 48 hrs by FACS in presence of AP1510, zVAD-fmk
[7] = Inhibition of death receptor signaling mediated necroptotic cell death in human Jurkat cells deficient in FADD and expressing RIP kinase assessed as cell viability after 48 hrs by FACS in presence of AP1510, zVAD-fmk; type: cell-based
[8] = Inhibition of death receptor signaling mediated necroptotic cell death in human Jurkat cells deficient in FADD and expressing RIP K45M mutant assessed as cell viability after 48 hrs by FACS in presence of AP1510, zVAD-fmk; type: cell-based
[9] = Inhibition of death receptor signaling mediated necroptotic cell death in human Jurkat cells deficient in FADD and expressing RIP kinase domain assessed as cell viability after 48 hrs by FACS in presence of AP1510, zVAD-fmk; type: cell-based
[10] = Inhibition of death receptor signaling mediated necrotic cell death in human Jurkat cell expressing FADD fused to FKBP12-based dimerization domain (JK-FF)assessed as cell viability after 48 hrs by ATP based viability assay in presence of AP20187 and zVAD.fmk
[11] = Inhibition of death receptor signaling mediated necrotic cell death in mouse 3T3 cells assessed as cell viability after 24 hrs by ATP based viability assay in presence of TNFalpha and zVAD.fmk; conditions: NIH3T3
[12] = Inhibition of death receptor signaling mediated necrotic cell death in mouse 3T3 cells assessed as cell viability after 24 hrs by ATP based viability assay in presence of FasL and zVAD.fmk; conditions: NIH3T3
[13] = Inhibition of death receptor signaling mediated necrotic cell death in rat IEC18 cells assessed as cell viability in presence of TNFalpha and zVAD.fmk; type: cell-based
[14] = Inhibition of death receptor signaling mediated necrotic cell death in human HL60 cells assessed as cell viability in presence of TNFalpha and zVAD.fmk; type: cell-based; conditions: HL-60
[15] = Inhibition of death receptor signaling mediated necroptotic cell death in human Jurkat cell deficient in FADD assessed as inhibition of plasma membrane permeability after 24 hrs by in presence of TNFalpha; type: cell-based
[16] = Inhibition of death receptor signaling mediated apoptosis in human Jurkat cell assessed as inhibition of mitochondrial dysfunction after 24 hrs by in presence of FasL, CHX and zVAD.fmk; type: cell-based
[17] = tested on: Jurkat; test: Effect on apoptosis in human Jurkat cell assessed as chromatin marginalization by electron microscopy in presence of FasL and CHX; type: functional, cell-based
[18] = tested on: Jurkat; test: Effect on apoptosis in human Jurkat cell assessed as plasma membrane blebbing by electron microscopy in presence of FasL and CHX; type: functional, cell-based
[19] = tested on: Jurkat; test: Inhibition of necrosis in human Jurkat cells assessed as nuclear condensation by bright field microscopy in presence of FasL, CHX and zVAD-fmk; type: functional, cell-based
[20] = tested on: Jurkat; test: Inhibition of necrosis in human Jurkat cells assessed as organelle swelling by bright field microscopy in presence of FasL, CHX and zVAD-fmk; type: functional, cell-based
[21] = tested on: Jurkat; test: Inhibition of necrosis in human Jurkat cells assessed as early loss of plasma membrane integrity by bright field microscopy in presence of FasL, CHX and zVAD-fmk; type: functional, cell-based
[22] = tested on: Jurkat; test: Inhibition of necrosis in human Jurkat cells assessed as appearance of translucent cytosol in presence of FasL, CHX and zVAD-fmk; type: functional, cell-based
[23] = tested on: Jurkat; test: Inhibition of necrosis in human Jurkat cells deficient in FADD assessed as inhibition of organelle swelling by bright field microscopy in presence of TNFalpha; type: functional, cell-based
[24] = tested on: Jurkat; test: Inhibition of necrosis in human Jurkat cells deficient in FADD assessed as inhibition of appearance of translucent cytosol in presence of TNFalpha; type: functional, cell-based
[25] = Inhibition of death receptor signaling mediated necroptotic cell death in human Jurkat cells deficient in FADD and expressing RIP K45M mutant assessed as cell viability after 48 hrs by FACS in presence of AP1510; type: cell-based
[26] = Inhibition of death receptor signaling mediated necroptotic cell death in human Jurkat cells deficient in FADD and expressing RIP kinase domain assessed as cell viability after 48 hrs by FACS in presence of AP1510; type: cell-based
[27] = tested on: Jurkat; test: Effect on ATP level in human Jurkat cells; type: functional, cell-based
[28] = tested on: Jurkat; test: Effect on mitochondrial membrane potential in human Jurkat cells; type: functional, cell-based
[29] = tested on: Jurkat; test: Effect on plasma membrane integrity in human Jurkat cells; type: functional, cell-based
[30] = tested on: Jurkat; test: Effect on changes in cell size in human Jurkat cells; type: functional, cell-based
[31] = tested on: Jurkat; test: Effect on changes in cell shape in human Jurkat cells; type: functional, cell-based
[32] = tested on: Jurkat; test: Effect on cell cycle in human Jurkat cells assessed as cells in sub-G1 phase; type: functional, cell-based
[33] = tested on: Jurkat; test: Effect on cell cycle in human Jurkat cells assessed as cells in G1 phase; type: functional, cell-based
[34] = tested on: Jurkat; test: Effect on cell cycle in human Jurkat cells assessed as cells in G2/M phase; type: functional, cell-based
[35] = tested on: Jurkat; test: Antiproliferative activity against human Jurkat cells; type: functional, cell-based
[36] = tested on: Jurkat; test: Effect on gene expression in human Jurkat cells after 16 hrs by Agilent DNA chip analysis; type: functional, cell-based
[37] = tested on: NIH3T3; test: Effect on morphology of nucleus in mouse 3T3 cells after 24 hrs by TO-PRO-3 staining in presence of TNFalpha and zVAD-fmk; type: functional, cell-based
[38] = tested on: NIH3T3; test: Effect on morphology of golgi apparatus in mouse 3T3 cells after 24 hrs by anti-giantin immunofluorescence in presence of TNFalpha and zVAD-fmk; type: functional, cell-based
[39] = tested on: NIH3T3; test: Effect on morphology of mitochondria in mouse 3T3 cells after 24 hrs by anti-cytochrome c immunofluorescence in presence of TNFalpha and zVAD-fmk; type: functional, cell-based
[40] = tested on: Jurkat; test: Effect on cell cycle in human Jurkat cells deficient in FADD assessed as cells in sub-G1 phase relative to control; type: functional
[41] = tested on: Jurkat; test: Effect on cell cycle in human Jurkat cells deficient in FADD assessed as cells in S phase relative to control; type: functional
[42] = tested on: Jurkat; test: Effect on cell cycle in human Jurkat cells deficient in FADD assessed as cells in G2/M phase relative to control; type: functional
[43] = tested on: Jurkat; test: Effect on cell cycle in human Jurkat cells deficient in FADD assessed as cells in S phase in presence of TNFalpha relative to control; type: functional

CN1C(=O)C(Cc2c[nH]c3ccccc23)NC1=S (stereo not drawn) [NECROSTATIN]
45.1%: Activity [41]
active: inhibition [3] | inhibition [4] | inhibition [5] | inhibition [6] | inhibition [7] | inhibition [8] | inhibition [9] | inhibition [10] | inhibition [11] | inhibition [12] | inhibition [13] | inhibition [14] | inhibition [15] | inhibition [16] | inhibition [19] | inhibition [20] | inhibition [21] | inhibition [22] | inhibition [23] | inhibition [24] | inhibition [25] | inhibition [26]
13.5%: Activity [42]
inactive: inhibition [1] | inhibition [2] | Activity [17] | Activity [18] | Activity [27] | Activity [28] | Activity [29] | Activity [30] | Activity [31] | Activity [32] | Activity [33] | Activity [34] | Activity [35] | Activity [36] | Activity [37] | Activity [38] | Activity [39]
44.8%: Activity [43]
0.7%: Activity [40]
